Measurements: PubChem BioAssay (NCI)
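Following 48 hours of exposure in 96-well plates, responses at five concentrations were used to interpolate endpoints linearly. The concentration for full growth arrest is given as TGI.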

Assays:
Assay in all cases: NCI-60 cell line screen, 48 h
[1] = tested on: RPMI-8226 leukemia
[2] = tested on: ACHN renal
[3] = tested on: KM20L2 colon
[4] = tested on: U251 CNS
[5] = tested on: XF 498 CNS
[6] = tested on: DMS 114 small cell lung
[7] = tested on: RXF-631 renal
[8] = tested on: SNB-78 CNS
[9] = tested on: NCI-H226 lung
[10] = tested on: A498 renal
[11] = tested on: MALME-3M melanoma
[12] = tested on: LOX IMVI melanoma
[13] = tested on: KM12 colon
[14] = tested on: IGROV1 ovarian
[15] = tested on: SF-295 CNS
[16] = tested on: HT29 colon
[17] = tested on: HCT-15 colon
[18] = tested on: NCI-H23 lung
[19] = tested on: M14 melanoma
[20] = tested on: M19-MEL melanoma
[21] = tested on: UO-31 renal
[22] = tested on: SNB-19 CNS
[23] = tested on: OVCAR-3 ovarian
[24] = tested on: TK-10 renal
[25] = tested on: SW-620 colon
[26] = tested on: K-562 leukemia
[27] = tested on: UACC-257 melanoma
[28] = tested on: COLO 205 colon
[29] = tested on: OVCAR-4 ovarian
[30] = tested on: SK-MEL-28 melanoma
[31] = tested on: NCI-H460 lung
[32] = tested on: CCRF-CEM leukemia
[33] = tested on: NCI-H522 lung
[34] = tested on: SK-MEL-5 melanoma
[35] = tested on: EKVX NSCLC
[36] = tested on: A549 NSCLC
[37] = tested on: HL-60(TB) leukemia
[38] = tested on: 786-0 renal
[39] = tested on: MOLT-4 leukemia
[40] = tested on: HOP-62 NSCLC
[41] = tested on: SF-539 CNS
[42] = tested on: UACC-62 melanoma
[43] = tested on: RXF 393 renal
[44] = tested on: OVCAR-8 ovarian
[45] = tested on: SN12C renal
[46] = tested on: SF-268 CNS
[47] = tested on: HCC-2998 colon
[48] = tested on: SK-OV-3 ovarian
[49] = tested on: SNB-75 CNS
[50] = tested on: SK-MEL-2 melanoma
[51] = tested on: DMS 273 small cell lung
[52] = tested on: HOP-18 NSCLC
[53] = tested on: HOP-92 NSCLC
[54] = tested on: HCT-116 colon
[55] = tested on: DLD-1 colon
[56] = tested on: LXFL 529 NSCLC
[57] = tested on: OVCAR-5 ovarian
[58] = tested on: CAKI-1 renal
[59] = tested on: SR leukemia

With `CCC12CCC(O)C1N(C)CCC2Sc1ccccc1` (stereo unspecified) the TGI [1] was over 100 µM, the TGI [2] was over 100 µM and the TGI [3] was over 100 µM. The TGI [4] was over 100 µM, the TGI [5] was over 100 µM and the TGI [6] was over 100 µM. For the same compound, the TGI [7] was over 100 µM, the TGI [8] was over 100 µM and the TGI [9] was over 100 µM. It also gave a TGI [10] of over 100 µM, a TGI [11] of over 100 µM and a TGI [12] of over 100 µM. The TGI [13] was over 100 µM, the TGI [14] was over 100 µM and the TGI [15] was over 100 µM. The TGI [16] was over 100 µM, the TGI [17] was over 100 µM and the TGI [18] was over 100 µM. It also gave a TGI [19] of over 100 µM, a TGI [20] of over 100 µM and a TGI [21] of over 100 µM. The TGI [22] was over 100 µM, the TGI [23] was over 100 µM and the TGI [24] was over 100 µM. For the same compound, the TGI [25] was over 100 µM, the TGI [26] was over 100 µM and the TGI [27] was over 100 µM. It also gave a TGI [28] of over 100 µM, a TGI [29] of over 100 µM and a TGI [30] of over 100 µM. For the same compound, the TGI [31] was over 100 µM, the TGI [32] was over 100 µM and the TGI [33] was over 100 µM. The TGI [34] was over 100 µM, the TGI [35] was over 100 µM and the TGI [36] was over 100 µM. It also gave a TGI [37] of 56.5 µM, a TGI [38] of over 100 µM and a TGI [39] of over 100 µM. It also gave a TGI [40] of over 100 µM, a TGI [41] of over 100 µM and a TGI [42] of over 100 µM. For the same compound, the TGI [43] was over 100 µM, the TGI [44] was over 100 µM and the TGI [45] was over 100 µM. For the same compound, the TGI [46] was over 100 µM, the TGI [47] was 94.8 µM and the TGI [48] was over 100 µM. The TGI [49] was 87.9 µM, the TGI [50] was over 100 µM and the TGI [51] was over 100 µM. For the same compound, the TGI [52] was over 100 µM, the TGI [53] was 94.3 µM and the TGI [54] was over 100 µM.
`COC1C(=[N+]=[N-])C(=O)NC(=O)N1C1OC(COC(c2ccccc2)(c2ccccc2)c2ccccc2)C(O)C1O` (stereo unspecified) gave a TGI [1] of 61.8 µM, a TGI [2] of 38.3 µM and a TGI [3] of 31.1 µM. For the same compound, the TGI [4] was 35.5 µM, the TGI [8] was 45.6 µM and the TGI [9] was 32.1 µM. The TGI [10] was 35.4 µM, the TGI [11] was 33.8 µM and the TGI [12] was 30.1 µM. The TGI [13] was 30.5 µM, the TGI [14] was 47.5 µM and the TGI [15] was 37.4 µM. It also gave a TGI [16] of 35.3 µM, a TGI [17] of 36.8 µM and a TGI [18] of 34.8 µM. For the same compound, the TGI [19] was 34.6 µM, the TGI [55] was 37.3 µM and the TGI [20] was 39.5 µM. The TGI [21] was 32.2 µM, the TGI [56] was 32.1 µM and the TGI [22] was 34 µM. The TGI [23] was 32.9 µM, the TGI [25] was 35.8 µM and the TGI [26] was 49.4 µM. It also gave a TGI [28] of 38 µM, a TGI [29] of 27.8 µM and a TGI [30] of 31.2 µM. The TGI [31] was 60.6 µM, the TGI [32] was 41.6 µM and the TGI [57] was 31.7 µM. For the same compound, the TGI [33] was 31 µM, the TGI [34] was 30 µM and the TGI [35] was 35.9 µM. The TGI [36] was 31.9 µM, the TGI [37] was 46.7 µM and the TGI [39] was 49.7 µM. The TGI [40] was 41.1 µM, the TGI [41] was 35.6 µM and the TGI [42] was 30.5 µM. For the same compound, the TGI [44] was 36.9 µM, the TGI [45] was 32.7 µM and the TGI [46] was 35.7 µM. It also gave a TGI [47] of 32.8 µM, a TGI [48] of 49.6 µM and a TGI [49] of 29.5 µM. The TGI [50] was 38.4 µM, the TGI [58] was 56.1 µM and the TGI [52] was 37.5 µM. The TGI [54] was 34.9 µM.
`O=C1C2c3[nH]c4ccccc4c3C3CCSCC3C2C(=O)N1c1ccccc1` (stereo unspecified) showed a TGI [1] of over 100 µM, a TGI [2] of over 100 µM and a TGI [3] of over 100 µM. The TGI [4] was over 100 µM, the TGI [5] was over 100 µM and the TGI [8] was over 100 µM. The TGI [9] was over 100 µM, the TGI [10] was over 100 µM and the TGI [11] was over 100 µM. The TGI [12] was over 100 µM, the TGI [13] was over 100 µM and the TGI [14] was over 100 µM. It also gave a TGI [15] of over 100 µM, a TGI [16] of over 100 µM and a TGI [17] of over 100 µM. For the same compound, the TGI [18] was over 100 µM, the TGI [19] was over 100 µM and the TGI [55] was over 100 µM. The TGI [20] was over 100 µM, the TGI [21] was over 100 µM and the TGI [56] was over 100 µM. For the same compound, the TGI [22] was over 100 µM, the TGI [23] was over 100 µM and the TGI [24] was over 100 µM. It also gave a TGI [25] of over 100 µM, a TGI [26] of over 100 µM and a TGI [27] of over 100 µM. For the same compound, the TGI [28] was over 100 µM, the TGI [29] was over 100 µM and the TGI [30] was over 100 µM. It also gave a TGI [31] of over 100 µM, a TGI [32] of over 100 µM and a TGI [57] of over 100 µM. It also gave a TGI [33] of over 100 µM, a TGI [34] of over 100 µM and a TGI [35] of over 100 µM. It also gave a TGI [36] of over 100 µM, a TGI [37] of over 100 µM and a TGI [38] of over 100 µM. The TGI [39] was over 100 µM, the TGI [40] was over 100 µM and the TGI [41] was over 100 µM. For the same compound, the TGI [42] was over 100 µM, the TGI [43] was over 100 µM and the TGI [44] was over 100 µM. For the same compound, the TGI [45] was over 100 µM, the TGI [46] was over 100 µM and the TGI [48] was over 100 µM. For the same compound, the TGI [49] was 44.7 µM, the TGI [50] was over 100 µM and the TGI [58] was over 100 µM. For the same compound, the TGI [51] was over 100 µM, the TGI [53] was over 100 µM and the TGI [54] was over 100 µM.
Compound `Cc1c2[nH]c3ccc(Br)cc3c2c(C)c2[nH]ccc(=O)c12` has a TGI [1] of 41.5 µM, a TGI [2] of 22.5 µM and a TGI [5] of 29.7 µM. The TGI [6] was 35.2 µM, the TGI [8] was 35.7 µM and the TGI [9] was 35.9 µM. It also gave a TGI [59] of 37.9 µM, a TGI [11] of 28 µM and a TGI [12] of 32.7 µM. The TGI [13] was 25.6 µM, the TGI [15] was 28.7 µM and the TGI [16] was 30.2 µM. For the same compound, the TGI [17] was 30.4 µM, the TGI [18] was 37.8 µM and the TGI [19] was 30.9 µM. For the same compound, the TGI [55] was over 100 µM, the TGI [20] was 29.6 µM and the TGI [21] was 24.2 µM. The TGI [22] was 33.2 µM, the TGI [23] was 32.2 µM and the TGI [24] was 26.9 µM. The TGI [25] was 25.5 µM, the TGI [26] was 55.7 µM and the TGI [27] was 34.9 µM. For the same compound, the TGI [28] was 27.1 µM, the TGI [29] was 31.3 µM and the TGI [30] was 34.8 µM. The TGI [31] was 23.1 µM, the TGI [32] was 31.6 µM and the TGI [57] was 30 µM. For the same compound, the TGI [33] was 28.5 µM, the TGI [34] was 64.2 µM and the TGI [35] was 33.5 µM. It also gave a TGI [36] of 25.7 µM, a TGI [37] of 38.5 µM and a TGI [38] of 25.1 µM. The TGI [39] was 28 µM, the TGI [40] was 28.6 µM and the TGI [41] was 32 µM. The TGI [44] was 76.9 µM, the TGI [45] was 32.4 µM and the TGI [46] was 32.6 µM. The TGI [47] was 31.1 µM, the TGI [49] was over 100 µM and the TGI [50] was 33.8 µM. The TGI [58] was 28 µM, the TGI [51] was 27 µM and the TGI [52] was 22.9 µM. For the same compound, the TGI [54] was 28.2 µM.
